{"source": "patent US4202819A", "about": "“2-(3-Alanyl)clavam antibiotic” (Hoffman-La Roche Inc., priority 1979, dated 1980)", "assay_in_all_cases": "in vitro antimicrobial activity (MIC), agar diffusion well method", "assay_type_in_all_cases": "cell-based", "key": {"[1]": {"tested_on": "Mycobacterium phlei 78 (ATCC 355)", "details": "Mycolicibacterium phlei", "experimental": "(§1) The in vitro antimicrobial activity of the antibiotic (minimal inhibitory concentration) was determined by the agar diffusion well method. The results expressed in micrograms/ml were as follows: […]"}, "[2]": {"tested_on": "Bacillus sp. TA (ATCC 27860)", "experimental": "as §1"}, "[3]": {"tested_on": "Serratia sp. 101 (ATCC 93)", "experimental": "as §1"}, "[4]": {"tested_on": "Bacillus megaterium 164 (ATCC 8011)", "details": "Priestia megaterium", "experimental": "as §1"}, "[5]": {"tested_on": "Serratia marcescens SM (ATCC 27857)", "experimental": "as §1"}, "[6]": {"tested_on": "Pseudomonas aeruginosa 56 (ATCC 8709)", "experimental": "as §1"}, "[7]": {"tested_on": "Paecilomyces varioti M16 (ATCC 26820)", "experimental": "as §1"}, "[8]": {"tested_on": "Acinetobacter calcoaceticus PCI-3 (ATCC 10153)", "experimental": "as §1"}, "[9]": {"tested_on": "Klebsiella pneumoniae 369 (ATCC 27858)", "experimental": "as §1"}, "[10]": {"tested_on": "Candida albicans 155 (NRRL 477)", "experimental": "as §1"}, "[11]": {"tested_on": "Sarcina lutea PCI (ATCC 9341)", "details": "Micrococcus luteus", "experimental": "as §1"}, "[12]": {"tested_on": "Bacillus sp. E (ATCC 27859)", "details": "ATCC27859, BBL Antibiotic Medium \"A\" Assay Agar", "experimental": "as §1"}, "[13]": {"tested_on": "Streptococcus faecium (ATCC 8043)", "details": "Enterococcus faecium, ATCC8043; BBL Antibiotic Medium \"A\" Assay Agar", "experimental": "as §1"}, "[14]": {"tested_on": "Staphylococcus aureus 82 (ATCC 6538 P)", "details": "ATCC6538, BBL Antibiotic Medium \"A\" Assay Agar", "experimental": "as §1"}, "[15]": {"tested_on": "Penicillium digitatum 0184 (ATCC 26821)", "details": "ATCC26821, BBL Antibiotic Medium \"A\" Assay Agar", "experimental": "as §1"}, "[16]": {"tested_on": "Streptomyces cellulosae 097 (ATCC 3313)", "experimental": "as §1"}, "[17]": {"tested_on": "Proteus vulgaris 101N (ATCC 6380)", "details": "ATCC6380, BBL Antibiotic Medium \"A\" Assay Agar", "experimental": "as §1"}, "[18]": {"tested_on": "Saccharomyces cerevisiae 90 (ATCC 4226)", "experimental": "as §1"}, "[19]": {"tested_on": "Bacillus subtilis 558 (NRRL 558)", "experimental": "as §1"}, "[20]": {"tested_on": "Escherichia coli 94 (ATCC 27856)", "experimental": "as §1"}}, "note": "Read-outs that look alike come from different tables or passages of the source."}
{"compound": "N[C@@H](CC1CN2C(=O)CC2O1)C(=O)O", "note": "(some centres unmarked) [2-(3-alanyl)clavam, 3-(7-oxo-4-oxa-1-azabicyclo[3.2.0]hept-3-yl)alanine]", "values": [{"measurement": "MIC", "setting": "[1]; ATCC355, BBL Antibiotic Medium \"A\" Assay Agar", "result": "> 1000", "unit": "µg/mL"}, {"measurement": "MIC", "setting": "[1]; ATCC355, Davis Minimal Agar", "result": "> 500", "unit": "µg/mL"}, {"measurement": "MIC", "setting": "[2]; ATCC27860, BBL Antibiotic Medium \"A\" Assay Agar", "result": "> 1000", "unit": "µg/mL"}, {"measurement": "MIC", "setting": "[2]; ATCC27860, Davis Minimal Agar", "result": 0.03, "unit": "µg/mL"}, {"measurement": "MIC", "setting": "[3]; ATCC93, BBL Antibiotic Medium \"A\" Assay Agar", "result": "> 1000", "unit": "µg/mL"}, {"measurement": "MIC", "setting": "[3]; ATCC93, Davis Minimal Agar", "result": 500, "unit": "µg/mL"}, {"measurement": "MIC", "setting": "[4]; ATCC8011, BBL Antibiotic Medium \"A\" Assay Agar", "result": "> 1000", "unit": "µg/mL"}, {"measurement": "MIC", "setting": "[4]; ATCC8011, Davis Minimal Agar", "result": "> 500", "unit": "µg/mL"}, {"measurement": "MIC", "setting": "[5]; ATCC27857, BBL Antibiotic Medium \"A\" Assay Agar", "result": "> 1000", "unit": "µg/mL"}, {"measurement": "MIC", "setting": "[5]; ATCC27857, Davis Minimal Agar", "result": "> 500", "unit": "µg/mL"}, {"measurement": "MIC", "setting": "[6]; Davis Minimal Agar", "result": "> 1000", "unit": "µg/mL"}, {"measurement": "MIC", "setting": "[6]; Pseudomonas aeruginosa, ATCC8709, BBL Antibiotic Medium \"A\" Assay Agar, read-out: MIC", "result": "> 1000", "unit": "µg/mL"}, {"measurement": "MIC", "setting": "[7]; ATCC26820, BBL Antibiotic Medium \"A\" Assay Agar", "result": 250, "unit": "µg/mL"}, {"measurement": "MIC", "setting": "[7]; ATCC26820, Davis Minimal Agar", "result": 15.7, "unit": "µg/mL"}, {"measurement": "MIC", "setting": "[8]; ATCC10153, BBL Antibiotic Medium \"A\" Assay Agar", "result": "> 1000", "unit": "µg/mL"}, {"measurement": "MIC", "setting": "[8]; ATCC10153, Davis Minimal Agar", "result": "> 500", "unit": "µg/mL"}, {"measurement": "MIC", "setting": "[9]; ATCC27858, BBL Antibiotic Medium \"A\" Assay Agar", "result": "> 1000", "unit": "µg/mL"}, {"measurement": "MIC", "setting": "[9]; ATCC27858, Davis Minimal Agar", "result": 62.5, "unit": "µg/mL"}, {"measurement": "MIC", "setting": "[10]; NRRL477, BBL Antibiotic Medium \"A\" Assay Agar", "result": "> 1000", "unit": "µg/mL"}, {"measurement": "MIC", "setting": "[10]; NRRL477, Davis Minimal Agar", "result": 500, "unit": "µg/mL"}, {"measurement": "MIC", "setting": "[11]; ATCC9341, BBL Antibiotic Medium \"A\" Assay Agar", "result": "> 1000", "unit": "µg/mL"}, {"measurement": "MIC", "setting": "[11]; ATCC9341, Davis Minimal Agar", "result": "> 500", "unit": "µg/mL"}, {"measurement": "MIC", "setting": "[12]", "result": "> 1000", "unit": "µg/mL"}, {"measurement": "MIC", "setting": "[13]", "result": "> 1000", "unit": "µg/mL"}, {"measurement": "MIC", "setting": "[14]", "result": "> 1000", "unit": "µg/mL"}, {"measurement": "MIC", "setting": "[15]", "result": "> 1000", "unit": "µg/mL"}, {"measurement": "MIC", "setting": "[16]; ATCC3313, BBL Antibiotic Medium \"A\" Assay Agar", "result": "> 1000", "unit": "µg/mL"}, {"measurement": "MIC", "setting": "[16]; ATCC3313, Davis Minimal Agar", "result": "> 500", "unit": "µg/mL"}, {"measurement": "MIC", "setting": "[17]", "result": "> 1000", "unit": "µg/mL"}, {"measurement": "MIC", "setting": "[18]; ATCC4226, BBL Antibiotic Medium \"A\" Assay Agar", "result": "> 1000", "unit": "µg/mL"}, {"measurement": "MIC", "setting": "[18]; ATCC4226, Davis Minimal Agar", "result": 125, "unit": "µg/mL"}, {"measurement": "MIC", "setting": "[19]; NRRL558, BBL Antibiotic Medium \"A\" Assay Agar", "result": "> 1000", "unit": "µg/mL"}, {"measurement": "MIC", "setting": "[19]; NRRL558, Davis Minimal Agar", "result": 0.25, "unit": "µg/mL"}, {"measurement": "MIC", "setting": "[20]; ATCC27856, BBL Antibiotic Medium \"A\" Assay Agar", "result": "> 1000", "unit": "µg/mL"}, {"measurement": "MIC", "setting": "[20]; ATCC27856, Davis Minimal Agar", "result": 1000, "unit": "µg/mL"}]}
